Test results taken from patent US20050249714A1, “Method of using secretin and compositions made therefrom for the treatment of autism and other neurological, behavioral and immunological disorders” (Repligen Corporation, a Massachusetts corporation, priority 1997, published 2005).
No end group written: not given here.

Tests used:
[1] = tested on: abnormal opioid peptides; conditions: autistic children responding to casein free and gluten free diet, after the secretin infusion; cited from earlier work
[2] = tested on: patient, a child with symptoms of autism; assay: Intravenous secretin infusion in a child with symptoms of autism (Example 1); type: in vivo, human
Experimental: The present invention will be better understood from the following examples which are given by way of illustration and not by way of limitation. The patient, the same in both examples, is a child with symptoms of autism.
When the patient was […], the secretin was administered by way of an infusion as part of an upper gastrointestinal endoscopy. The secretin was used in this diagnostic procedure at the request of the patient's parents, one of which is an inventor of the present invention. The secretin used in this procedure is known as Secretin-Ferring available from Ferring Laboratories, Inc., Suffern, N.Y. (See Appendix A). The secretin was dissolved in a […] solution of sodium chloride and administered in a dosage of 2 clinical units (CU) per kilogram (kg) body weight by intravenous injection over one minute. (I.E. 30 IU IV for approximately 15 kilograms of body weight.)
The diagnostic tests performed on the patient during this procedure also indicated gastric inflammation. […] The following Table I summarizes the improvements observed in the patient within 3 weeks after the infusion of secretin.
Biomedical changes were also measured in the patient.
At the request of the patient's parents, a second infusion of secretin was performed about 9 months after the first infusion, and a third infusion of secretin was performed about three months after the second infusion.

[3] = tested on: patient, a child with symptoms of autism; assay: Daily transdermal secretin with DMSO in the same patient (Example 2); type: in vivo, human; conditions: about 15 CU daily
Experimental: At the time of this treatment, the patient was […]. Secretin was administered transdermally using pharmaceutical grade dimethyl sulfoxide (DMSO) (generally 99.9% pure) available from Clinic Service Co., Box 2512, Hemet Calif. 92543. The secretin (Secretin-Ferring) was administered daily in a dosage of about 75 CU over a five day period (i.e., about 15 CU daily) For each treatment, about 4 drops of DMSO were placed onto the skin of the patient, about 15 CU of the crystalline secretin was placed onto the DMSO, and the composition was rubbed into the skin.

With “secretin (HSDGTFTSELSRLRDSARLQRLLQGLV-NH2; ends and bridges not checked; UniProt P63298 33-59, looked up) [polypeptide hormone secreted by the mucosa of the duodenum and upper jejunum; used as Secretin-Ferring from Ferring Laboratories]” as the substance, how does the abnormal opioid peptides [1] read?
The abnormal opioid peptides was “the peptides disappeared”.

And the “time at which the rate of the patient's progress appeared to decrease” value ([2]; after the first infusion)?
Its value is “about 5 weeks”.

What about the “perfusion of the right posterior parietal and right temporal lobes (SPECT scan)” value ([2]; after the treatment) of the same substance?
The value was “improved”.

And the “results of second and third infusions” value ([2]; second infusion about 9 months after the first, third about three months after the second)?
Its value is “achieved the same results”.

What about the imitation of commands ([2]; within 3 weeks after infusion, before: did not imitate) of the same substance?
Its imitation of commands is “Will imitate almost any multi-step command”.

What about the diet preferences ([2]; within 3 weeks after infusion, before: limited diet preferences) of the same substance?
Its diet preferences is “No Change”.

What about the “connections made between language and objects” value ([2]; within 3 weeks after infusion, before: no apparent connections) of the same substance?
Its value is “Many connections made between new language”.

What about the interaction with videos ([2]; within 3 weeks after infusion, before: watch videos) of the same substance?
Its interaction with videos is “Now, gets “involved” interactively with their videos”.

And the “chronic abnormal bowel movements” value ([2]; within days after the administration, no change in diet)?
Its value is “became normal”.

And the overall improvements [3]?
Its overall improvements is “even more dramatic and significant improvements”.
